{"source": "paper PMC9401007", "about": "“Advances towards Cell‐Specific Gene Transfection: A Small‐Molecule Approach Allows Order‐of‐Magnitude Selectivity” (Chemistry (Weinheim an Der Bergstrasse, Germany), 2022)", "key": {"[1]": {"tested_on": "HeLa cells", "experiment": "Transfection of pH2B-mCherry plasmid, microscopy with CellProfiler readout", "assay_type": "cell-based", "experimental": "(§1) The development of vector 1 is illustrated in Table 1. In order to assess structure–activity relationships (SAR), we analyzed the minimal concentration needed to achieve transfection in steps of 100 μM, the toxicological profile and the transfection efficiency. To get swift access to toxicity data for SAR analysis, the compounds listed in Table 1 were evaluated in an MTS‐based cell‐viability assay, and transfection efficiencies were analyzed by CellProfiler® on HeLa cells (see the Supporting Information for details).[18] […] Amide formation on the N terminus reduced the net charge by 1, and acetylation at this position led to an increased concentration needed for successful transfection (Table 1, Entry B). Finally, the descent in transfection efficiency to 5.9 % highlights the relevance of a fifth positive charge.[19] Apparently, this reduction of positive charges impedes DNA condensation and must be compensated for.\n4.2 Transfection and Microscopy\nCells were seeded in a 96-well plate from (Greiner bio-one) 24 h prior to experiments at a confluence of 1x104 in 100 µL of culture growth medium and grown at 37.0 °C, 5% CO2 atmosphere and 95% relative humidity. The vector was dissolved in DMSO. 0.100 µg of DNA were diluted with DB-PBS and an appropriate amount of vector solution added resulting in a total volume of 30 µL. This solution was incubated for 20 min at rt. Afterwards 30.0 µL of culture growth medium was replaced by vector/DNA mixture. All precipitate which had formed during the incubation process was added to the well. After 5 h of incubation the cells were washed with warm DB-PBS buffer (2x100 µL per well) before incubating the cells for 24h at 37.0 °C, 5% CO2 atmosphere and 95% relative humidity. After 24 h the cells were examined under the microscope.\nFigure S4. Representative microscopy images of HEK293t, HeLa, CHO, A549 and HCT116 cells 24 h after transfection with 1 (150 µM) with pH2B-mCherry.\nScale bar represents 200 µm. […]\n4.3 Quantification of Transfection Results\nFor quantification of transfection efficiencies, cells were transfected with the pH2B-mCherry plasmid using the different compounds at the described concentrations and stained with DAPI. […] The transfection efficiency was calculated using CellProfiler™.[7] […] Next, the fluorescence intensity in the red channel (Ex = 555 nm; Em > 590 nm) was measured within the segmented nuclei and a threshold was applied.\nThe ratio between pH2B-mCherry positive nuclei and all nuclei (segmented by DAPI) was determined as transfection efficiency. […]\nFigure S7. […] The pipeline recognizes Hoechst-stained nuclei and measures the intensity of the fluorescent reporter protein within the previously calculated nuclei boundaries. […]"}, "[2]": {"tested_on": "HeLa cells", "experiment": "MTS-based cell-viability assay (CellTiter 96 AQueous One Solution Cell Proliferation Assay)", "conditions": "5 h incubation with plasmid DNA 1 µg/ml", "experimental": "as §1\n4. Biological experiments\nDetermination of the toxicity of the compounds was performed using the colorimetric CellTiter 96® AQueous One Solution Cell Proliferation Assay (Promega). […] Absorbance at 490 nm was measured using a GloMax-multi plate reader (Promega). […]"}}}
{"substance": "tetralysine-guanidinocarbonylpyrrol", "values": [{"measurement": "Conc.: minimal concentration needed to observe successful transfection during microscopy", "setting": "[1]; analysed in steps of 100 μM, pH2B-mCherry plasmid, 5 h incubation, examined after 24 h", "value": 150, "unit": "µM"}, {"measurement": "Efficiency: transfection efficiency by CellProfiler readout", "setting": "[1]; at the (minimal) concentration printed in column Conc., fraction of pH2B-mCherry positive nuclei", "value": 3.2, "unit": "%"}, {"measurement": "Efficiency: transfection efficiency by CellProfiler readout at the optimal concentration", "setting": "[1]; at the concentration marked (opt.): A 300 μM, 1 150 μM", "value": 48, "unit": "%"}, {"measurement": "Conc. (opt.): concentration of maximum transfection efficiency", "setting": "[1]; pH2B-mCherry plasmid", "value": 300, "unit": "µM"}, {"measurement": "Toxicity (qualitative, MTS assay)", "setting": "[2]; concentration range optimal for transfection (for entry A: at the minimal concentration 150 μM), absorbance 490 nm, normalised to DMSO control", "value": "low (Low=cell viability ≥70 %)"}, {"measurement": "Toxicity (qualitative, MTS assay) at the optimal concentration", "setting": "[2]; entry A at 300 μM (opt.)", "value": "high (high=cell viability <70 %)"}]}
